Measurements as given in PubChem BioAssay AID504675 (Southern Research Specialized Biocontainment Screening …, 2011).

System: E. coli UTI89 K1 capsule, phage K1F lysis, OD600
Assay: UTI89 protection from K1F phage killing – strain UTI89, C7 control, set 3, capsule biogenesis inhibitor project, dose response (AID 504675)
Details: measured here: cytotoxicity test

**Q.** How did the CC50 turn out when `N=c1n(CCN2CCCC2)c2ccccc2n1CC(O)c1ccc(Cl)c(Cl)c1` (stereo not given) was run?
**A.** 9.38 µM

**Q.** `COc1ccc2nc(NC(=O)c3cccs3)sc2c1` was tested. Which CC50 did it give?
**A.** 104 µM

**Q.** Which CC50 does the source give for `O=C(O)c1cc(-c2cccc(F)c2)nc2ccccc12` here?
**A.** > 300 µM

**Q.** With `COc1ccc2nc(NC(=O)c3ccco3)sc2c1` as the compound, how does the CC50 read?
**A.** 93.4 µM

**Q.** With `COc1cccc(C(=O)Nc2nc3ccc(OC)cc3s2)c1` as the compound, how does the CC50 read?
**A.** 23.4 µM

**Q.** With `COc1cccc(-c2cc(C(=O)O)c3ccccc3n2)c1` as the compound, how does the CC50 read?
**A.** 78.3 µM

**Q.** With `COc1ccc2nc(NC(=O)c3ccccc3OC)sc2c1` as the compound, how does the CC50 read?
**A.** 66.8 µM

**Q.** `COc1ccc2nc(NC(=O)c3ccccc3)sc2c1` was tested. Which CC50 did it give?
**A.** 45.4 µM

**Q.** `COc1ccc(C(=O)Nc2nc3ccc(OC)cc3s2)cc1` was tested. Which CC50 did it give?
**A.** > 300 µM

**Q.** For `COc1ccc2nc(NC(=O)c3ccc(F)cc3)sc2c1`, which CC50 is on record?
**A.** 21.7 µM
